Measurements: ChEMBL document CHEMBL5512637, “Development of Membrane-Targeting Fluorescent 2-Phenyl-1H-phenanthro[9,10-d]imidazole-Antimicrobial Peptide Mimic Conjugates against Methicillin-Resistant Staphylococcus aureus” (J Med Chem, 2024)
The source made the active and inactive calls. The calls are words filed in the database; no cut-off is given here.

Key:
Staphylococcus aureus [1] = assay: Antibacterial activity against methicillin-resistant Staphylococcus aureus clinical isolate M-1 incubated for 16 to 18 hrs CLSI based by microbroth dilution assay; type: functional; conditions: time 16-18 hrs
Staphylococcus aureus [2] = assay: Antibacterial activity against methicillin-resistant Staphylococcus aureus clinical isolate M-2 incubated for 16 to 18 hrs CLSI based by microbroth dilution assay; type: functional; conditions: time 16-18 hrs
Staphylococcus aureus [3] = assay: Antibacterial activity against methicillin-resistant Staphylococcus aureus clinical isolate M-3 incubated for 16 to 18 hrs CLSI based by microbroth dilution assay; type: functional; conditions: time 16-18 hrs
Staphylococcus aureus [4] = assay: Antibacterial activity against methicillin-resistant Staphylococcus aureus clinical isolate M-4 incubated for 16 to 18 hrs CLSI based by microbroth dilution assay; type: functional; conditions: time 16-18 hrs
Staphylococcus aureus [5] = assay: Antibacterial activity against methicillin-resistant Staphylococcus aureus clinical isolate M-10 incubated for 16 to 18 hrs CLSI based by microbroth dilution assay; type: functional; conditions: time 16-18 hrs
[6] = Selectivity index, ratio of HC50 for sheep erythrocytes to MIC for Staphylococcus aureus ATCC 29213; type: toxicity; conditions: read-out: Selectivity Index
Staphylococcus aureus [7] = assay: Bactericidal activity against Staphylococcus aureus ATCC 29213 by time kill assay; type: functional, organism-based
Staphylococcus aureus [8] = assay: Bactericidal activity against Staphylococcus aureus ATCC 29213 at 4 times MIC incubated for 2 hrs by time kill assay relative to control; type: functional
Staphylococcus aureus [9] = assay: Bactericidal activity against Staphylococcus aureus ATCC 29213 at 8 times MIC incubated for 1 hr by time kill assay relative to control; type: functional
Staphylococcus aureus [10] = assay: Bactericidal activity against methicillin-resistant Staphylococcus aureus clinical isolate M-4 at 4 times MIC incubated for 6 hrs by time kill assay relative to control; type: functional
Staphylococcus aureus [11] = assay: Induction of resistance development in Staphylococcus aureus ATCC 29213 at MIC measured after 20 passages; type: functional
Staphylococcus aureus [12] = assay: Antibacterial activity against Staphylococcus aureus ATCC 29213 at 1 ug/ml in absence of exogenous DNA; type: functional, organism-based; conditions: dose 1.0 µg/ml
Staphylococcus aureus [13] = assay: Disruption of cell membrane in methicillin-resistant Staphylococcus aureus clinical isolate M-4 assessed as rough cell membrane at 8 times MIC incubated for 1 hr by SEM analysis; type: functional, organism-based
Staphylococcus aureus [14] = assay: Disruption of cell membrane in methicillin-resistant Staphylococcus aureus clinical isolate M-4 assessed as increase in fluorescence intensity measured for 30 mins by DiSC3(5) dye based analysis; type: functional, organism-based; conditions: dose 8-32 µg/ml
Staphylococcus aureus [15] = assay: Disruption of cell membrane in methicillin-resistant Staphylococcus aureus clinical isolate M-4 assessed as fold increase in fluorescence intensity at 32 ug/ml measured after 20 mins by DiSC3(5) dye based analysis relative to control; type: functional; conditions: dose 32 µg/ml
Staphylococcus aureus [16] = assay: Disruption of cell membrane in methicillin-resistant Staphylococcus aureus clinical isolate M-4 assessed as decrease in blue fluorescence at 4 ug/ml incubated for 4 hrs by DAPI/PI staining based laser confocal microscopy; type: functional, organism-based; conditions: dose 4.0 µg/ml
Staphylococcus aureus [17] = assay: Disruption of cell membrane in methicillin-resistant Staphylococcus aureus clinical isolate M-4 assessed as increase in red fluorescence at 4 ug/ml incubated for 4 hrs by DAPI/PI staining based laser confocal microscopy; type: functional, organism-based; conditions: dose 4.0 µg/ml
Staphylococcus aureus [18] = assay: Disruption of cell membrane in methicillin-resistant Staphylococcus aureus clinical isolate M-4 assessed as protein leakage at 1 to 8 times MIC incubated for 4 hrs by BCA assay; type: functional, organism-based
Staphylococcus aureus [19] = assay: Disruption of cell membrane in methicillin-resistant Staphylococcus aureus clinical isolate M-4 assessed as increase in intracellular ROS level incubated for 1 hr by DCFH-DA dye based analysis; type: functional, organism-based; conditions: dose 1-32 µg/ml
Staphylococcus aureus [20] = assay: Disruption of cell membrane in methicillin-resistant Staphylococcus aureus clinical isolate M-4 assessed as fold increase in intracellular ROS level at 32 ug/ml incubated for 1 hr by DCFH-DA dye based analysis relative to control; type: functional; conditions: dose 32 µg/ml
Staphylococcus aureus [21] = assay: Antibacterial activity against methicillin-resistant Staphylococcus aureus clinical isolate M-4 upto 128 ug/ml incubated for 16 to 18 hrs in presence of phosphatidylglycerol by broth dilution method; type: functional, organism-based; conditions: dose <= 128.0 µg/ml, time 16-18 hrs
Staphylococcus aureus [22] = assay: Antibacterial activity against methicillin-resistant Staphylococcus aureus clinical isolate M-4 upto 128 ug/ml incubated for 16 to 18 hrs in presence of cardiolipin by broth dilution method; type: functional, organism-based; conditions: dose <= 128.0 µg/ml, time 16-18 hrs
Staphylococcus aureus [23] = assay: Antibacterial activity against methicillin-resistant Staphylococcus aureus clinical isolate M-4 upto 128 ug/ml incubated for 16 to 18 hrs in presence of peptidoglycan by broth dilution method; type: functional, organism-based; conditions: dose <= 128.0 µg/ml, time 16-18 hrs
[24] = Toxicity in KM mouse assessed as change in mental health at 5 to 80 mg/kg, sc measured for 24 hrs; type: organism-based; conditions: in vivo, dose 5-80 mg/kg
[25] = Toxicity in KM mouse assessed as animal abnormality at 5 to 80 mg/kg, sc measured for 24 hrs; type: organism-based; conditions: in vivo, dose 5-80 mg/kg
[26] = Toxicity in KM mouse assessed as red swollen appearance of skin at administration site at 40 to 80 mg/kg, sc measured for 24 hrs; type: organism-based; conditions: in vivo, dose 40-80 mg/kg
[27] = Toxicity in KM mouse assessed as red swollen appearance of skin at administration site at 5 to 20 mg/kg, sc measured for 24 hrs; type: organism-based; conditions: in vivo, dose 5-20 mg/kg
[28] = Toxicity in KM mouse assessed as change in albumin level at 20 mg/kg, sc measured after 24 hrs; type: organism-based; conditions: in vivo
[29] = Toxicity in KM mouse assessed as change in mean corpuscular volume at 20 mg/kg, sc measured after 24 hrs; type: organism-based; conditions: in vivo
[30] = Toxicity in KM mouse assessed as change in RBC count at 20 mg/kg, sc measured after 24 hrs; type: organism-based, Erythrocyte; conditions: in vivo
[31] = Toxicity in KM mouse assessed as change in WBC count at 20 mg/kg, sc measured after 24 hrs; type: organism-based; conditions: in vivo
[32] = Toxicity in KM mouse assessed as histological abnormality in heart at 20 mg/kg, sc measured after 24 hrs by H and E staining based analysis; type: organism-based; conditions: in vivo
[33] = Toxicity in KM mouse assessed as histological abnormality in liver at 20 mg/kg, sc measured after 24 hrs by H and E staining based analysis; type: organism-based; conditions: in vivo
[34] = Toxicity in KM mouse assessed as histological abnormality in lungs at 20 mg/kg, sc measured after 24 hrs by H and E staining based analysis; type: organism-based; conditions: in vivo
Staphylococcus aureus [35] = assay: Antibacterial activity against methicillin-resistant Staphylococcus aureus clinical isolate M-4 infected in KM mouse assessed as decrease in erythema in subcutaneous tissue at 5 to 10 mg/kg, sc measured after 24 hrs by H and E staining based analysis; type: functional, organism-based; conditions: dose 5-10 mg/kg
Staphylococcus aureus [36] = assay: Antibacterial activity against methicillin-resistant Staphylococcus aureus clinical isolate M-4 infected in KM mouse assessed as survival rate of bacteria at 5 mg/kg, sc measured after 24 hrs relative to control; type: functional
[37] = Toxicity in KM mouse infected with methicillin-resistant Staphylococcus aureus clinical isolate M-4 assessed as histopathological abnormality in liver at 5 to 10 mg/kg, sc measured after 24 hrs by H and E staining based analysis; type: organism-based; conditions: in vivo, dose 5-10 mg/kg
[38] = Toxicity in KM mouse infected with methicillin-resistant Staphylococcus aureus clinical isolate M-4 assessed as histopathological abnormality in kidneys at 5 to 10 mg/kg, sc measured after 24 hrs by H and E staining based analysis; type: organism-based; conditions: in vivo, dose 5-10 mg/kg

CCCCCNC(=O)C[N+](C)(C)CCCCn1c(-c2ccc(N(C)C)cc2)nc2c3ccccc3c3ccccc3c21.[Br-]
MIC (Staphylococcus aureus [1]): 2 µg/mL | MIC (Staphylococcus aureus [2]): 1 µg/mL | MIC (Staphylococcus aureus [3]): 1 µg/mL | MIC (Staphylococcus aureus [4]): 0.5 µg/mL | MIC (Staphylococcus aureus [5]): 1 µg/mL | selectivity ratio [6]: 859 | Activity (Staphylococcus aureus [7]): Dose-Dependent Effect | Activity (Staphylococcus aureus [8]): 100% | Activity (Staphylococcus aureus [9]): 100% | Activity (Staphylococcus aureus [10]): 100% | Activity (Staphylococcus aureus [11]): inactive | Activity (Staphylococcus aureus [12]): Active | Activity (Staphylococcus aureus [13]): Active | Activity (Staphylococcus aureus [14]): Dose-Dependent Effect | fold change (FC) (Staphylococcus aureus [15]): ~5 | Activity (Staphylococcus aureus [16]): Active | Activity (Staphylococcus aureus [17]): Active | Activity (Staphylococcus aureus [18]): Active | Activity (Staphylococcus aureus [19]): Dose-Dependent Effect | fold change (FC) (Staphylococcus aureus [20]): ~3 | Activity (Staphylococcus aureus [21]): inactive | Activity (Staphylococcus aureus [22]): Active | Activity (Staphylococcus aureus [23]): Active | Activity [24]: Non-Toxic | Activity [25]: Non-Toxic | Activity [26]: Toxic | Activity [27]: Non-Toxic | Activity [28]: Non-Toxic | Activity [29]: Non-Toxic | Activity [30]: Non-Toxic | Activity [31]: Non-Toxic | Activity [32]: Non-Toxic | Activity [33]: Non-Toxic | Activity [34]: Non-Toxic | Activity (Staphylococcus aureus [35]): Active | survival at 5 mg/kg (Staphylococcus aureus [36]): 0.42% | Activity [37]: Non-Toxic | Activity [38]: Non-Toxic
